molecular target: T1, PERK recombinant enzyme (cytoplasmic domain corresponding to residues 540-1115) (Homo sapiens (Human), UniProt Q9NZJ5); test: PERK enzyme assay, Method 1: ADP-Glo Kinase Assay (quantification of ADP formed); format: biochemical; conditions: 52 microM ATP, 8 nM PERK, 300 microM eIF2alpha peptide substrate, 60 minutes at room temperature
Method: (§1) The biochemical activity of compounds was determined by incubation with PERK recombinant enzyme (cytoplasmic domain corresponding to residues 540-1115) and elF2alpha peptide substrate (Aminoacid sequence: LLSELSRRRIRSINK—SEQ ID Nr: 1; purchased from American Peptide Company, product #341923). This was followed by:
Method 1: Quantification of the ADP Tormed from the Kinase Reaction by ADP-Glo™ Kinase Assay (Promega Cat. 9102). Utra Pure ATP was Included into ADP-Glo™ Kinase Assay kit.
Compounds were 3-fold serially diluted in order to obtain from 3.333 to 0.000169 microM final concentration, then incubated for 60 minutes at room temperature in the presence of ATP, substrate and enzyme in a final volume of 15 microL of kinase buffer in 384-well plates (Perkin Elmer cat. #6007290).
The final concentration of the different reagents is 52 microM ATP, 8 nM PERK, 300 microM substrate, 50 mM Hepes pH 7.5, 3 mM MgCl2, 1 mM DTT, 3 microM Na3VO4, 0.2 mg/ml BSA, 1% DMSO.
After 60 minutes, an equal volume (15 microL) of ADP-Glo™ Reagent was added to each well to terminate the kinase reaction and deplete the remaining ATP. After 40 minutes, 30 microL of Kinase Detection Reagent is added, which simultaneously converts ADP to ATP and allows the newly synthesized ATP to be measured using a coupled luciferase/luciferin reaction. After further 40 minutes luminescence was read by ViewLux Instrument (Perkin Elmer). The data are analyzed by GraphPad Prism software which provides sigmoidal fittings of the curves for IC50 determination using a 4 parameter logistic equation: y=bottom+(top−bottom)/(1+10^((log IC50−x)*slope))
(§2) where x is the logarithm of the inhibitor concentration, y is the response; y starts at bottom and goes to top with a sigmoid shape.

T1 sequence (Q9NZJ5 540-1115): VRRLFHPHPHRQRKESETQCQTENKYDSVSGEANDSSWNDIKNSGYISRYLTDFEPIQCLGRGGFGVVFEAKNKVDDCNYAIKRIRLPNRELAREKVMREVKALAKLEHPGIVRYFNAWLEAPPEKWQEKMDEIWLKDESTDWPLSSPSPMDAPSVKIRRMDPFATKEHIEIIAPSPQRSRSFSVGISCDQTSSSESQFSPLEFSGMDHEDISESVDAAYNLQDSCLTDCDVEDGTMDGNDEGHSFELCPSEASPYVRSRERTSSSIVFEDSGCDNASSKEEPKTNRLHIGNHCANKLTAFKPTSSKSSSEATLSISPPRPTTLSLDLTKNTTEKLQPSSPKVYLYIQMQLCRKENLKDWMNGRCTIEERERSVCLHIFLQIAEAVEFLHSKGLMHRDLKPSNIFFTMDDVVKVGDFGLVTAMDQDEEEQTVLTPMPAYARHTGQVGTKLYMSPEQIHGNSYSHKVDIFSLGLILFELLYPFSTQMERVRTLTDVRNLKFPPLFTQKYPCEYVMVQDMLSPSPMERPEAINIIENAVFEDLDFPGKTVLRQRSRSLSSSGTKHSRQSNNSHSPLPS

Structure (SMILES) | IC50
Cn1cc(-c2cccc(NS(=O)(=O)c3ccc(C(F)(F)F)cc3)c2F)c2c(N)ncnc21 [cmpd 15, N-[3-(4-Amino-7-methyl-7H-pyrrolo[2,3-d]pyrimidin-5-yl)-2-fluoro-phenyl]-4-trifluoromethyl-benzenesulfonamide] | 0.0501 to 0.158 µM

molecular target: T1, PERK recombinant enzyme (cytoplasmic domain corresponding to residues 540-1115); test: PERK enzyme assay, Method 2: quantification of phosphorylated product with ATP/P33 gammaATP (Dowex resin); format: biochemical; conditions: Method 2 (P33 gammaATP radiometric); 52 microM ATP, 8 nM PERK, 300 microM eIF2alpha peptide substrate, 60 minutes at room temperature
Method: as §1
Method 2: Quantification of the Phosphorylated Product Formed from the Kinase Reaction in Presence of ATP (Aldrich, Cat #A2620-9).
Serially diluted compounds were incubated for 60 minutes at room temperature in the presence of ATP/P^33 gammaATP mix, substrate and enzyme in a volume of 15 microL of kinase buffer in 384-well plates (Thermo Scientific, cat #4312).
The reaction volume contains, in final concentration, 52 microM ATP, 8 nM PERK and 300 microM substrate in 50 mM Hepes pH 7.5, 3 mM MgCl2, 1 mM DTT, 3 microM Na3VO4, 0.2 mg/ml BSA. The final concentration of DMSO was 1%.
At the end of the incubation, an amount of 60 microL of Dowex resin (Sigma, customized resin 1×8 200-400 mesh cat #13858-U) in 150 mM sodium formate buffer pH=3.0 was added to stop the reaction and capture unreacted ATP/P^33 gammaATP, separating it from the phosphorylated substrate in solution. After 60 minutes of rest, a volume of 22 microL of supernatant was transferred into 384-Optiplates (Perkin-Elmer, cat #6007290). After the addition of 50 microL of Microscint 40 (Perkin-Elmer, cat #6013641), the radioactivity was counted in the TopCount (Perkin Elmer).
The data per each molecule are analyzed by an internally customized version of the SW package “Assay Explorer”, or by GraphPad Prizm software alternatively, which provides sigmoidal fittings of the curves for IC50 determination using a 4 parameter logistic equation: y=bottom+(top−bottom)/(1+10^((log IC50−x)*slope))
as §2

Structure (SMILES) | pIC50 | IC50
COc1ccc(S(=O)(=O)Nc2cccc(-c3nn(C4CCN(C(=O)OC(C)(C)C)CC4)c4ncnc(N)c34)c2F)cc1Cl [cmpd 11, 4-{4-Amino-3-[3-(3-chloro-4-methoxy-benzenesulfonylamino)-2-fluoro-phenyl]-pyrazolo[3,4-d]pyrimidin-1-yl}-piperidine-1-carboxylic acid tert-butyl ester] | C (pIC50 < 6.8) | 
COc1ccc(S(=O)(=O)Nc2cccc(-c3nn(C4CCN(C)CC4)c4ncnc(N)c34)c2F)cc1Cl [cmpd 66, N-{3-[4-Amino-1-(1-methyl-piperidin-4-yl)-1H-pyrazolo[3,4-d]pyrimidin-3-yl]-2-fluoro-phenyl}-3-chloro-4-methoxy-benzenesulfonamide] |  | 0.0501 to 0.158 µM
CN1CCC(n2cc(-c3cccc(NS(=O)(=O)c4ccc(Cl)c(Cl)c4)c3F)c3c(N)ncnc32)CC1 [cmpd 71, N-{3-[4-Amino-7-(1-methyl-piperidin-4-yl)-7H-pyrrolo[2,3-d]pyrimidin-5-yl]-2-fluoro-phenyl}-3,4-dichloro-benzenesulfonamide] | AA (7.8 ≤ pIC50) | 
COc1cc(F)c(S(=O)(=O)Nc2cccc(-c3nn(C4CCN(C(C)C)CC4)c4ncnc(N)c34)c2F)cc1Cl [cmpd 65, N-{3-[4-Amino-1-(1-isopropyl-piperidin-4-yl)-1H-pyrazolo[3,4-d]pyrimidin-3-yl]-2-fluoro-phenyl}-5-chloro-2-fluoro-4-methoxy-benzenesulfonamide] |  | 0.0501 to 0.158 µM
CN1CCC(n2cc(-c3cccc(NS(=O)(=O)c4ccc(Br)cc4F)c3F)c3c(N)ncnc32)CC1 [cmpd 72, N-{3-[4-Amino-7-(1-methyl-piperidin-4-yl)-7H-pyrrolo[2,3-d]pyrimidin-5-yl]-2-fluoro-phenyl}-4-bromo-2-fluoro-benzenesulfonamide] |  | 0.0158 to 0.0501 µM
Cn1cc(-c2cccc(NS(=O)(=O)C3CCCCC3)c2F)c2c(N)ncnc21 [cmpd 89, Cyclohexanesulfonic acid [3-(4-amino-7-methyl-7H-pyrrolo[2,3-d]pyrimidin-5-yl)-2-fluoro-phenyl]-amide] | C (pIC50 < 6.8) | 
COc1cc(F)c(S(=O)(=O)Nc2cccc(-c3cn(C)c4ncnc(N)c34)c2C#N)cc1Cl [cmpd 90, N-[3-(4-Amino-7-methyl-7H-pyrrolo[2,3-d]pyrimidin-5-yl)-2-cyano-phenyl]-5-chloro-2-fluoro-4-methoxy-benzenesulfonamide] |  | 0.0501 to 0.158 µM
COc1cc(S(=O)(=O)Nc2cccc(-c3cn(C)c4ncnc(N)c34)c2F)c(F)cc1Cl [cmpd 79, N-[3-(4-Amino-7-methyl-7H-pyrrolo[2,3-d]pyrimidin-5-yl)-2-fluoro-phenyl]-4-chloro-2-fluoro-5-methoxy-benzenesulfonamide] |  | 0.0158 to 0.0501 µM
COc1ccc(S(=O)(=O)Nc2cccc(-c3nn(C4CCNCC4)c4ncnc(N)c34)c2F)cc1Cl [cmpd 63, N-[3-(4-Amino-1-piperidin-4-yl-1H-pyrazolo[3,4-d]pyrimidin-3-yl)-2-fluoro-phenyl]-3-chloro-4-methoxy-benzenesulfonamide] |  | 0.0158 to 0.0501 µM
COc1cc(F)c(S(=O)(=O)Nc2cccc(-c3nn(C4CCNCC4)c4ncnc(N)c34)c2F)cc1Cl [cmpd 62, N-[3-(4-Amino-1-piperidin-4-yl-1H-pyrazolo[3,4-d]pyrimidin-3-yl)-2-fluoro-phenyl]-5-chloro-2-fluoro-4-methoxy-benzenesulfonamide] |  | 0.0158 to 0.0501 µM
CN1CCC(n2cc(-c3cccc(NS(=O)(=O)c4ccc(Br)s4)c3F)c3c(N)ncnc32)CC1 [cmpd 77, 5-Bromo-thiophene-2-sulfonic acid {3-[4-amino-7-(1-methyl-piperidin-4-yl)-7H-pyrrolo[2,3-d]pyrimidin-5-yl]-2-fluoro-phenyl}-amide] |  | 0.0158 to 0.0501 µM
COc1cc(F)c(S(=O)(=O)Nc2cccc(-c3nn(C4CCN(C)CC4)c4ncnc(N)c34)c2F)cc1Cl [cmpd 61, N-{3-[4-Amino-1-(1-methyl-piperidin-4-yl)-1H-pyrazolo[3,4-d]pyrimidin-3-yl]-2-fluoro-phenyl}-5-chloro-2-fluoro-4-methoxy-benzenesulfonamide] |  | 0.0158 to 0.0501 µM
COc1cc(F)c(S(=O)(=O)Nc2cccc(-c3cn(C4CCN(C)CC4)c4ncnc(N)c34)c2F)cc1C [cmpd 73, N-{3-[4-Amino-7-(1-methyl-piperidin-4-yl)-7H-pyrrolo[2,3-d]pyrimidin-5-yl]-2-fluoro-phenyl}-2-fluoro-4-methoxy-5-methyl-benzenesulfonamide] | AA (7.8 ≤ pIC50) | 
COc1cc(F)c(S(=O)(=O)Nc2cccc(-c3nn(C4CCN(C(=O)OC(C)(C)C)CC4)c4ncnc(N)c34)c2F)cc1Cl [cmpd 10, 4-{4-Amino-3-[3-(5-chloro-2-fluoro-4-methoxy-benzenesulfonylamino)-2-fluoro-phenyl]-pyrazolo[3,4-d]pyrimidin-1-yl}-piperidine-1-carboxylic acid tert-butyl ester] | C (pIC50 < 6.8) | 
